The structures appear in SMILES notation. Calls of active or inactive are those of the source.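 The calls were made as follows: active = maximal inhibition of the USP30 enzyme reaching 30% or more across the dose series; inactive = the rest.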

For the experiment, the target named is Ubiquitin carboxyl-terminal hydrolase 30 (Homo sapiens) (UniProt Q70CQ3). Nature of the experiment: inhibitors of ubiquitin-specific protease 30 deubiquitylating enzyme, concentration dependence, in vitro biochemical, validation of primary hits (AID 1645865). Particulars: purified USP30, Ub-rhodamine cleavage, fluorescence, 2 h.
Sequence of Ubiquitin carboxyl-terminal hydrolase 30 (Homo sapiens) (Q70CQ3 whole entry, looked up): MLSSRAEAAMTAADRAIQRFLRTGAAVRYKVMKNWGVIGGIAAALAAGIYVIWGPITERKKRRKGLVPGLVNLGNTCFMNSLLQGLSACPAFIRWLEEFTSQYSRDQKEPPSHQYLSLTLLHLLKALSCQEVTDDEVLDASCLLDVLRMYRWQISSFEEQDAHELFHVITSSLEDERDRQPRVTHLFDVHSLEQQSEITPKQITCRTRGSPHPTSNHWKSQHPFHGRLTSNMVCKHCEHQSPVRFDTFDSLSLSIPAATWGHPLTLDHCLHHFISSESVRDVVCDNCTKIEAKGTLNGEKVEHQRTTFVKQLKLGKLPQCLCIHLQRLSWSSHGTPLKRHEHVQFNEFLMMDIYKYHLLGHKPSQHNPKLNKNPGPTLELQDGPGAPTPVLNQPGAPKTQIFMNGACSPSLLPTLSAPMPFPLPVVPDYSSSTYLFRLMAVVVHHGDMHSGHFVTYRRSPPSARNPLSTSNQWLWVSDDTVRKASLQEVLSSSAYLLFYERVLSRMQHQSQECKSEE
Turning to `COc1ccc(NC(=O)COc2ccc3ccc(=O)oc3c2)cc1`, the IC50 was 34.8 µM.
As for `O=C(NCc1ccccc1Cl)c1ccc(-c2nnc(-c3ccccc3)o2)cc1`, the figure is 1.52 µM.
The figure for `CC[C@@]1(O)C[C@H](OC2CC(N(C)C)C(OC3CC(O)C(OC4CCC(=O)C(C)O4)C(C)O3)C(C)O2)c2c(cc3c(c2O)C(=O)c2c(O)ccc(O)c2C3=O)[C@H]1C(=O)OC` (some centres undefined) is > 50 µM (inactive); for `O=C(Cc1cccs1)Nc1cc(F)c2nc(N3CCOCC3)ccc2c1` it is > 50 µM (inactive).
For `O=S1(=O)CCN(CC2CCCO2)c2c(Oc3ccccc3)nc(F)c(Cl)c21` (centres undefined), the IC50 was > 50 µM (inactive).
As for `Cc1nn(Cc2ccccc2)c(Cl)c1C(=O)NC1CCCc2ccccc21` (centres undefined), the IC50 was > 50 µM (inactive).
`CCOc1ccc(S(=O)(=O)Nc2ccc[nH]c2=O)cc1`: the IC50 was > 50 µM (inactive).
For the molecule `Fc1cccc(Cn2cc(-c3noc(-c4ccncc4)n3)nn2)c1`, the IC50 is 22.8 µM.
As for `CN(C)CCc1cc2c(c3c1ccc1ccccc13)OCO2`, the figure is > 5 µM (inactive); as for `CN(C(=O)CSc1nnc(-c2cc3ccccc3n2C)o1)c1ccccc1`, > 50 µM (inactive).
The figure for `COc1ccc(-c2nc(C)c(C(=O)NCc3ccc(S(N)(=O)=O)cc3)s2)cc1` is > 50 µM (inactive).
As for `CC12c3ccc4c(c3C(=O)c3occ(c31)C(=O)CC2O)CCC4=O` (centres undefined), the figure is > 50 µM (inactive).
`Cc1c(C(=O)Nc2ccc(-c3nnc4n3CCCCC4)cc2)oc2c1ccc1ccccc12`: the IC50 was > 50 µM (inactive).
As to `CSc1nc(SCC(N)=O)c2c3c(sc2n1)COC(C)(C)C3`, the IC50 was 30.6 µM.
The figure for `O=C(Cc1ccccc1F)N1CCC2(CC1)CC1(CO2)Nc2ccccc2-n2cccc21` (centres undefined) is > 50 µM (inactive); for `N#Cc1ccc(NC(=O)Nc2cccn(Cc3ccccc3F)c2=O)cc1` it is 3.2 µM.
The figure for `CC(C(=O)NCc1ccc2c(c1)OCO2)N1CCN(c2ccc(O)cc2)CC1` (centres undefined) is > 50 µM (inactive).
`Cc1ccc(C(=O)Nc2ccc(S(=O)(=O)N3CCCC3)cc2)cc1Br`: the IC50 was > 50 µM (inactive).
The figure for `COc1ccc(CCNc2c(-c3ccccc3O)nc3cnccn23)cc1OC` is > 50 µM (inactive); for `N#Cc1ccc(-c2ccc(OCC(=O)Nc3ccc4c(c3)OCO4)cc2)cc1` it is 3.89 µM.
Regarding `COC1=CC(=O)c2c(O)c(C)c(CC(C)=O)c(O)c2C1=O`, the IC50 was > 50 µM (inactive).
Take `COc1ccc(-c2cc3nc(C)cc(Nc4ccc(F)cc4)n3n2)cc1OC`: the IC50 is > 50 µM (inactive).
The figure for `COc1cccc(N2CCN(c3ccc4nnc(CCC(=O)N5CCc6ccccc6C5)n4n3)CC2)c1` is 39.2 µM.
For the molecule `Cc1sc2ncnc(OCc3ccc(F)cc3Cl)c2c1C`, the IC50 is > 50 µM (inactive).
In the case of `CCOC(=O)c1cnn(-c2ccc(C(=O)Nc3ccc(C)c(Cl)c3)cc2)c1N`, the IC50 was 2.17 µM.
As for `CN(C)c1cccc(C(=O)Nc2cc(-c3cccnc3)no2)c1`, the figure is 16.6 µM; as for `COc1cccc(NC(=O)Nc2nccn(-c3ccc(F)cc3)c2=O)c1`, 21.2 µM; as for `COc1ccc(C)cc1NC(=O)COc1ccc2c(c1)OCO2`, > 50 µM (inactive).
As for `CC(C)C(=O)Nc1ccc(N2CCN(Cc3ccc(F)cc3)C2=O)nc1`, the figure is 37.6 µM; as for `CCOC(=O)c1sc2nc(CC(=O)OC)nc(NCc3ccco3)c2c1C`, > 50 µM (inactive); as for `Cc1ccc(-c2nc(Cn3nnc(-c4nc(-c5ccccn5)no4)c3C)c(C)o2)cc1`, > 50 µM (inactive).
The figure for `CC(OC(=O)CNC(=O)c1ccc(Br)cc1)C(=O)Nc1ccc2c(c1)OCCO2` (centres undefined) is 28 µM; for `CCc1noc(-c2ccc(OCC(=O)Nc3ccc(C)cc3C)cc2)n1` it is 29 µM; for `Cc1ccc(C(=O)NCc2ccc(C(=O)Nc3ccc(C)c(C)c3)o2)cc1` it is 21.4 µM.
For the molecule `Cn1c2ccccc2c2ncn(Cc3ccc(F)cc3)c(=O)c21`, the IC50 is 27.3 µM.
The figure for `COc1ccc(-c2nc3n(n2)C(c2cccc(O)c2)C2=C(CCCC2=O)N3)cc1` (centres undefined) is 38.2 µM.
`Cc1cc(NC(=O)c2[nH]nc3c2CCc2ccccc2-3)no1`: the IC50 was 4.47 µM.
As for `Cc1noc(-c2ccc(N3CCCC(C(=O)NCc4ccc(F)cc4)C3)nc2)n1` (centres undefined), the figure is 14.6 µM; as for `COc1ccc(N(CC(=O)NC2CCCCC2)C(=O)c2ccc(-c3ccccc3)[nH]2)cc1OC`, 2.83 µM; as for `COc1cccc2cc(C(=O)Nc3ccc4c(c3)OCCO4)oc12`, > 50 µM (inactive).
The figure for `CN1c2ccccc2CN(CC(N)=O)CC1Cc1ccccc1` (centres undefined) is > 50 µM (inactive).
The figure for `O=C(Cc1ccccc1F)Nc1nc(-c2ccco2)c(-c2ccco2)s1` is > 50 µM (inactive).
In the case of `O=C(OCc1ccc(Br)cc1)c1ccc2ccccc2n1`, the IC50 was > 50 µM (inactive).
Regarding `O=C(c1ccc(Cl)cc1)c1c[nH]cc1-c1c(F)cccc1Cl`, the IC50 is 19 µM.
As for `CN1CC2CN(C(=O)Nc3cccnc3)CCN2Cc2ccccc21` (centres undefined), the figure is > 50 µM (inactive); as for `Cn1ccc2c(cc(C(=O)NCCC3=CCCCC3)n2C)c1=O`, > 50 µM (inactive).
The figure for `O=c1oc2ccccc2c2nn(-c3ccccn3)cc12` is 16.7 µM; for `N#Cc1ccc(NC(=O)Nc2cccn(Cc3ccccc3Br)c2=O)cc1` it is > 50 µM (inactive).
On to `COc1ccc(CCNC(=O)c2noc3c2CCc2sccc2-3)cc1OC`, for which the IC50 is 39.9 µM.
The figure for `O=C(c1ccc(COc2cccc3ccccc23)o1)N1CCC(Cc2ccccc2)CC1` is > 50 µM (inactive); for `COC(=O)c1ccccc1NC(=O)CSc1nnc(-c2ccc(C(C)(C)C)cc2)n1C1CCCC1` it is 33.8 µM; for `CCn1ccc2c(cc(C(=O)Nc3cc(F)ccc3F)n2C)c1=O` it is > 50 µM (inactive).
The figure for `C=C1Nc2ccccc2C(=O)N1c1cccc(NC(=O)c2ccc(C)c(C)c2)c1` is > 50 µM (inactive).
Turning to `FC(F)(F)c1cccc(Nc2nnc(-c3cccnc3)s2)c1`, the IC50 is 2.76 µM.
As for `Cn1cccc1C(=O)N1CCCC2(C1)Nc1cccnc1NC2=NC1CCCC1` (centres undefined), the IC50 was > 50 µM (inactive).
Take `CC(C)c1cc2c(c(O)c1O)[C@@]13CCCC(C)(C)[C@@H]1C[C@@H]2OC3=O`: the IC50 was 26.6 µM.
The figure for `CCc1nnc(NC(=O)c2nnn(-c3ccccc3Cl)c2C)s1` is > 50 µM (inactive); for `O=C(Cn1c(NCc2ccccc2)nc2ccccc21)NCC(F)(F)F` it is 33.1 µM; for `Cc1cnc(CN2CCCC(c3ccc4cn[nH]c4n3)C2)cn1` (centres undefined) it is > 50 µM (inactive).
As for `Cc1ccc(C(=O)Nc2ccc3c(c2)C(=O)N(C)c2ccccc2O3)cc1C`, the figure is > 50 µM (inactive); as for `CC1CC(=O)Nc2ccccc2N1S(=O)(=O)c1ccc(C#N)cc1` (centres undefined), > 50 µM (inactive); as for `COc1ccc(-c2cc(-c3ccc(F)cc3)[nH]c(=O)c2C#N)cc1`, 22.1 µM.
As for `CC(OC(=O)c1ccc2c(c1)OCCO2)C(=O)NCC1CCCCC1` (centres undefined), the figure is 31.3 µM; as for `COc1ccc2nc(Nc3ncc4c(n3)CCCC4=O)nc(C)c2c1`, > 50 µM (inactive).
For `N#Cc1ccc(COC(=O)c2ccc3ccccc3n2)cc1`, the IC50 was > 50 µM (inactive).
As for `CCCCC/C=C/C=C/C(=O)OC1C(O)CC(c2ccc3c(c2O)C(=O)c2c(O)cc4cc(C)cc(O)c4c2C3=O)OC1C` (centres undefined), the figure is > 50 µM (inactive).
As for `CCc1nc(SCC(=O)Nc2ccccc2Cl)c2oc3ccccc3c2n1`, the figure is less than 0.05 µM; as for `COc1ccc(NCc2nc3ccccc3n2Cc2ccccc2)cc1`, > 50 µM (inactive).
With `CC(C)CC[C@H]1O[C@@H](CC(=O)O)Cc2cc3c(c(O)c21)C(=O)c1sc(=O)n(C)c1C3=O`, the IC50 was > 50 µM (inactive).
Turning to `CCN1C(=O)c2cccnc2Sc2cc(NC(=O)c3ccc(Cl)s3)ccc21`, the IC50 was > 50 µM (inactive).
Turning to `O=C(Nc1cccc2ccccc12)C1CCCN(S(=O)(=O)Cc2ccccc2)C1` (centres undefined), the IC50 was 4.36 µM.
As for `Cc1cccc(NC(=O)c2nc(N3CCSCC3)c3cnn(C)c3n2)c1`, the figure is > 50 µM (inactive); as for `Cc1cc(=O)n2c3c(c4c(cc13)c(CO)cc(=O)n4C)OC2`, > 5 µM (inactive).
As for `COc1cccc2cc(C(=O)Nc3nc(-c4ccncc4)cs3)oc12`, the IC50 was 0.161 µM.
Take `COCCCN1CCS(=O)(=O)c2c(Cl)c(F)nc(Oc3ccccc3F)c21`: the IC50 is > 50 µM (inactive).
With `COCCNC(=O)c1ccn(-c2ccc3ccc(-c4ccncc4)cn23)n1`, the IC50 was > 50 µM (inactive).
As for `Cc1cc(=O)n(CC(=O)Nc2ccccc2F)c(Nc2ccc(F)cc2)n1`, the figure is 14.2 µM.
For `Cn1c(CCN2CCCC2)nc2cc(NS(=O)(=O)c3ccccc3)ccc21`, the IC50 is > 50 µM (inactive).
The figure for `O=C(COC(=O)c1ccc2ncsc2c1)Nc1ccccc1F` is > 50 µM (inactive); for `O=C(CCc1nnc2n(Cc3ccc(F)cc3)c(=O)c3ccccc3n12)N1CCN(c2ccccn2)CC1` it is > 50 µM (inactive); for `COc1ccc(NC(=O)c2nnn(-c3cccc(C)c3)c2C)cc1` it is > 50 µM (inactive).
Take `O=C(CCCCn1c(=O)c2ccccc2n(Cc2ccccc2F)c1=O)NCCc1ccccc1`: the IC50 was 8.13 µM.
As for `NS(=O)(=O)c1ccc(NS(=O)(=O)c2ccc(NC(=O)Nc3ccc(Cl)cc3)cc2)cc1`, the figure is 29.4 µM.
Turning to `Cc1cccc(COc2ccc(C3SCC(=O)Nc4n[nH]c(C)c43)cc2)c1` (centres undefined), the IC50 is 8.16 µM.
In the case of `COc1ccc(NC(=O)c2nnn(-c3ccccc3C)c2C)cc1OC`, the IC50 was > 50 µM (inactive).
Turning to `CN1C(=O)[C@]23CC4=CC=C[C@H](O)[C@H]4N2C(=O)[C@@]1(CO)SS3`, the IC50 was 3.78 µM.
As for `Cc1ccc(-n2cc(C(=O)NCc3cccnc3)nn2)cc1C`, the figure is 21.6 µM.
As to `O=C(Nc1cccc(OC(=O)c2ccc(Cl)cc2)c1)c1ccc(Cl)cc1`, the IC50 was 16 µM.
The figure for `COc1ccccc1S(=O)(=O)N1CC[C@@H]2CN(C)[C@@H]2C1` is 32.2 µM.

For the origin of these results see PubChem BioAssay AID1645865 (Buhrlage Lab, Dana-Farber Cancer Institute and Novartis …, 2021).
